Assay results taken from patent publication US5747466A, “3-deoxy-3-descladinose derivatives of erythromycins A and B” (Abbott Laboratories, priority 1996, dated 1998).

What was measured:
Assay in all cases: In vitro antibacterial activity (MIC), agar dilution
[1] = system: ACINETOBACTER CALCOACETICUS CMX 669; assay type: cell-based; conditions: A. calcoaceticus CMX 669; BHI agar, 35-37 °C, 20-24 h
[2] = system: STAPHYLOCOCCUS AUREUS CMX 553; assay type: cell-based; conditions: S. aureus CMX 553; BHI agar, 35-37 °C, 20-24 h
[3] = system: PROVIDENCIA STUARTII CMX 640; assay type: cell-based; conditions: P. stuartii CMX 640; BHI agar, 35-37 °C, 20-24 h
[4] = system: ESCHERICHIA COLI H560; assay type: cell-based; conditions: E. coli H560; BHI agar, 35-37 °C, 20-24 h
[5] = system: STREPTOCOCCUS PYOGENES EES61; assay type: cell-based; conditions: S. pyogenes EES61; BHI agar, 35-37 °C, 20-24 h
[6] = system: STREPTOCOCCUS PYOGENES PIU 2548; assay type: cell-based; conditions: S. pyogenes PIU 2548; BHI agar, 35-37 °C, 20-24 h
[7] = system: KLEBSIELLA PNEUMONIAE ATCC 8045; assay type: cell-based; conditions: K. pneumoniae ATCC 8045; BHI agar, 35-37 °C, 20-24 h
[8] = system: M[…] ATCC 9341; assay type: cell-based, Micrococcus luteus; conditions: M. luteus ATCC 9341; BHI agar, 35-37 °C, 20-24 h
Procedure: (§1) Representative compounds of the present invention were assayed in vitro for antibacterial activity as follows: Twelve petri dishes containing successive aqueous dilutions of the test compound mixed with 10 mL of sterilized Brain Heart Infusion (BHI) agar (Difco 0418-01-5) were prepared. Each plate was inoculated with 1:100 (or 1:10 for slow-growing strains, such as Micrococcus and Streptococcus) dilutions of up to 32 different microorganisms, using a Steers replicator block. The inoculated plates were incubated at 35°-37° C. for 20 to 24 hours. In addition, a control plate, using BHI agar containing no test compound, was prepared and incubated at the beginning and end of each test.
(§2) An additional plate containing a compound having known susceptibility patterns for the organisms being tested and belonging to the same antibiotic class as the test compound was also prepared and incubated as a further control, as well as to provide test-to-test comparability. Erythromycin A was used for this purpose.
(§3) After incubation, each plate was examined. The minimum inhibitory concentration (MIC) was defined as the lowest concentration of drug yielding no growth, a slight haze, or sparsely isolated colonies on the inoculum spot as compared to the growth control.

[9] = system: M[…] ATCC 4698; assay type: cell-based, Micrococcus luteus; conditions: M. luteus ATCC 4698; BHI agar, 35-37 °C, 20-24 h
Procedure: as §1, §2, §3

[10] = system: MYCOBACTERIUM SMEGMATIS ATCC 114; assay type: cell-based; conditions: M. smegmatis ATCC 114; BHI agar, 35-37 °C, 20-24 h
[11] = system: STAPHYLOCOCCUS AUREUS A-5278; assay type: cell-based; conditions: S. aureus A-5278; BHI agar, 35-37 °C, 20-24 h
[12] = system: STAPHYLOCOCCUS AUREUS ATCC 6538P; assay type: cell-based; conditions: S. aureus ATCC 6538P; BHI agar, 35-37 °C, 20-24 h
[13] = system: NOCARDIA ARSTEROIDES ATCC 9970; assay type: cell-based; conditions: Nocardia ATCC 9970; BHI agar, 35-37 °C, 20-24 h
[14] = system: ENTEROBACTER AEROGENES ATCC 13048; assay type: cell-based; conditions: E. aerogenes ATCC 13048; BHI agar, 35-37 °C, 20-24 h
[15] = system: EN[…] ATCC 8043; assay type: cell-based, Enterococcus faecium; conditions: E. faecium ATCC 8043; BHI agar, 35-37 °C, 20-24 h
Procedure: as §1, §2, §3

[16] = system: PSEUDOMONAS AERUGINOSA DPHD-2862; assay type: cell-based; conditions: P. aeruginosa DPHD-2862; BHI agar, 35-37 °C, 20-24 h
[17] = system: STAPHYLOCOCCUS EPIDERMIDIS 3519; assay type: cell-based; conditions: S. epidermidis 3519; BHI agar, 35-37 °C, 20-24 h
[18] = system: STREPTOCOCCUS PYOGENES 930; assay type: cell-based; conditions: S. pyogenes 930; BHI agar, 35-37 °C, 20-24 h
[19] = system: ESCHERICHIA COLI KNK 437; assay type: cell-based; conditions: E. coli KNK 437; BHI agar, 35-37 °C, 20-24 h
[20] = system: PSEUDOMONAS CEPACIA 296I; assay type: cell-based; conditions: P. cepacia 296I; BHI agar, 35-37 °C, 20-24 h
[21] = system: PSEUDOMONAS AERUGINOSA DPHD-5263; assay type: cell-based; conditions: P. aeruginosa DPHD-5263; BHI agar, 35-37 °C, 20-24 h
[22] = system: ESCHERICHIA COLI JUHL; assay type: cell-based; conditions: E. coli JUHL; BHI agar, 35-37 °C, 20-24 h
[23] = system: STAPHYLOCOCCUS AUREUS CMX 642A; assay type: cell-based; conditions: S. aureus CMX 642A; BHI agar, 35-37 °C, 20-24 h
[24] = system: PSEUDOMONAS AERUGINOSA BMH10; assay type: cell-based; conditions: P. aeruginosa BMH10; BHI agar, 35-37 °C, 20-24 h
[25] = system: STAPHYLOCOCCUS AUREUS NCTC10649M; assay type: cell-based; conditions: S. aureus NCTC10649M; BHI agar, 35-37 °C, 20-24 h

Structure (SMILES): CC[C@H]1OC(=O)[C@H](C)C[C@H](C)[C@@H](O[C@@H]2O[C@H](C)C[C@H](N(C)C)[C@H]2O)[C@](C)(OC)C[C@@H](C)C(=NOCOCCOC)[C@H](C)[C@@H](O)[C@]1(C)O [Ex. 8]
- minimum inhibitory concentration (MIC) [1]: 12.5
- minimum inhibitory concentration (MIC) [2]: 0.2
- minimum inhibitory concentration (MIC) [3]: > 100
- minimum inhibitory concentration (MIC) [4]: 25
- minimum inhibitory concentration (MIC) [5]: 0.02
- minimum inhibitory concentration (MIC) [6]: 6.2
- minimum inhibitory concentration (MIC) [7]: 25
- minimum inhibitory concentration (MIC) [8]: 0.02
- minimum inhibitory concentration (MIC) [9]: 0.2
- minimum inhibitory concentration (MIC) [10]: 25
- minimum inhibitory concentration (MIC) [11]: > 100
- minimum inhibitory concentration (MIC) [12]: 0.1
- minimum inhibitory concentration (MIC) [13]: 0.05
- minimum inhibitory concentration (MIC) [14]: > 100
- minimum inhibitory concentration (MIC) [15]: 0.05
- minimum inhibitory concentration (MIC) [16]: 100
- minimum inhibitory concentration (MIC) [17]: 0.1
- minimum inhibitory concentration (MIC) [18]: > 100
- minimum inhibitory concentration (MIC) [19]: 100
- minimum inhibitory concentration (MIC) [20]: > 100
- minimum inhibitory concentration (MIC) [21]: 100
- minimum inhibitory concentration (MIC) [22]: 50
- minimum inhibitory concentration (MIC) [23]: 0.2
- minimum inhibitory concentration (MIC) [24]: 100
- minimum inhibitory concentration (MIC) [25]: 0.2
